From US12565495B2, “VMAT2 inhibitor and preparation method therefor and application thereof” (Luye Innomind Pharma Shijiazhuang Co., Ltd., priority 2019, dated 2026)

Legend:
VMAT2 = VMAT2 (Rattus norvegicus (Rat), UniProt Q01827); experiment: Radioactivity detection of binding to VMAT2 in rats ([3H]DHTBZ binding assay, rat cerebral vesicle membrane); settings: Table 25
Method: I. Radioactivity Detection of Activity of Compounds Binding to VMAT2 in Rats (Binding assay)
To determine the IC50 and Ki values of the binding of various compounds to VMAT2 in rats and to evaluate the affinity of compounds for VMAT2.
Male Wistar rat, weighing 175±25 g, was selected and the whole brain (without the cerebellum) of the rat was isolated surgically and placed into a pre-chilled sucrose solution (20 mL, 0.32 M) and homogenized by a Teflon pestle homogenizer. […] The supernatant was discarded and the precipitate obtained was placed in ice cold MilliQ water (18 mL, Millipore Corporation, Billerica, MA), incubated for 5 minutes and subjected to osmotic shock to shatter cell membrane. Then osmolarity was restored by addition of HEPES solution (25 mM, 2 mL) and potassium tartrate solution (100 mM, 2 mL). The resulting sample was centrifuged at 20,000 g for 20 min at 4° C. The supernatant was aspirated and MgSO4 solution (1 mM, 20 μL) was added. […] The precipitate was collected and resuspended in ice cold assay buffer (25 mM HEPES, 100 mM potassium tartrate, 5 mM MgSO4, 0.1 mM EDTA and 0.05 mM EGTA, pH 7.5) to obtain a vesicle suspension.
After completion of the incubation, the reaction solution was filtered (bacteria filter and collector, PerkinElmer Life and Analytical Sciences) to a filter plate and subsequently, the filter membrane was washed with 350 μL of ice-cold buffer (25 mM HEPES, 100 mM potassium tartrate, 5 mM MgSO4 and 10 mM NaCl, pH 7.5) five times. The filter plate was dried and had the bottom sealed. 40 μL of scintillation cocktail (MicroScint 20; PerkinElmer Life and Analytical Sciences) was added to each well. Radioactivity on the filter was determined by liquid scintillation spectrometry (TopCount NXT; PerkinElmer Life and Analytical Sciences).
Based on the radioactivity assay results above, IC50 and Ki were calculated. IC50 was calculated by a non-linear, least squares regression analysis using MathIQ™ (ID Business Solutions Ltd., UK). Ki values were calculated using the equation of Cheng and Prusoff (Cheng, Y., Prusoff, W. H., Biochem. Pharmacol. 22:3099-3108, 1973). Ki values were calculated in combination with the IC50 of the test compound and the historical KD in the radioactivity detection method of Eurofins Panlabs company.

[1] = Liver microsome incubation test, rat; settings: rat liver microsomes 0.5 mg/mL, 1 μM compound, NADPH, 37° C.
Method: (§1) Incubation: 100 μL of an incubation system included: liver microsomes (human, rat, mouse, monkey or dog) (0.5 mg/mL), sodium phosphate buffer (100 mM), and magnesium chloride (10 mM). […] After pre-incubation of the systems at 37° C. for 3 min, NADPH was added to a final concentration of 1 mM. The reaction was started. […] Each sample at each time point was processed parallelly in duplicate and a blank control group without coenzymes and a positive control group were provided.
(§2) A certain amount of internal standard was added to the sample following termination with acetonitrile. […] Relative remaining amount was taken as the ordinate and time as the abscissa.

[2] = test system: SD rat autonomous activity; experiment: SD rat autonomous activity model (total movement distance in open field, TopScan); type: in vivo; settings: SD rats, 0 hr to 1 hr post-dose
Method: SD rat autonomous activity models were used in the study.
• 2.1 Test animals: 32 SD rats, SPF-grade, Male, 5-7 weeks old, weighing: 200-220 g, pre-accustomed for at least 1 week before the test.
Preparation method: An appropriate amount of the medicament was weighed and dissolved with a small amount of DMSO (not more than 1% of the total volume). Then, 20% Solutol was added to obtain the desired medicament concentration and the final concentration of DMSO was <4%.
The rats were put into the detection box, pre-accustomed for 10 min and fasted. Animal grouping and dosing information were detailed in Table 35.
On the day of the test, the animals were accustomed for at least 1 hr in the test room. Rats in each group were given a vehicle or corresponding medicaments, respectively according to the doses in Table 35 in one single gavage and then put into the activity room. […] Rats of a same group should not be put in one same room among the eight activity rooms, and there was at least one rat from the control group in each round of test to prevent mutual interference. At the end of each round of test, the feces were swept out and the activity rooms were cleaned to avoid the influence of irrelevant interfering factors (odor, etc.) on the exercise activities of the rats.
The total movement distances of rats from 2 hr to 3 hr post-dose were recorded and analyzed by using a TopScan monitoring system and the reduction rate (RR) of the total movement distance was calculated, wherein RR=(Control group movement distance-Administration group movement distance)/Control group movement distance*100%.
Test data were expressed as mean±standard error of the mean (MEAN±SEM). Difference between various groups at each time point was compared by using PASW Statistics 18.0 software with one-way analysis of variance (ANOVA).
Animal grouping and dosing information were detailed in […].

[3] = Excipient compatibility test (purity after storage with excipients); type: physicochemical; settings: for purity change after mixing with excipients: mixed with excipients 1:20, placed open at 60° C. for 5 days
Method: Then the mixture was placed open at 60° C. for 5 days.
Purity detection method: about 35 mg of the sample was weighed precisely and placed in a 25 ml measuring flask. 15 ml of acetonitrile was added to dissolve the sample by ultrasound. Water was used to dilute to a given mark and the mixture was shaken uniformly and used as sample solution to be tested. Determination was carried out based on high performance liquid chromatography, octadecyl silane bonded silica gel was used as the filler (Inerstil ODS-3V, 250 mm×4.6 mm, 5 μm); 10 mmol/L diammonium hydrogen phosphate solution (adjusting the pH value to 6.95±0.05)-acetonitrile (80:20) was used as mobile phase A, acetonitrile was used as mobile phase B, and gradient elution was carried out according to Table 39. The detection wavelength was 282 nm; the column temperature was 35° C.; and the flow rate was 1.0 ml/min. 10 μl of the sample solution to be tested was precisely measured and injected into the liquid chromatograph, and the chromatogram was recorded. Calculation was carried out by the peak area normalization method.

[4] = Pharmacokinetic test in SD rats, gavage 10 μmol/kg (plasma concentration-time curves); type: in vivo; settings: male SD rats, FIG. 9
Method: Method of Pharmacokinetic Test in SD Rats:
The dosage of administration was 10 μmol/kg. At 0.25, 0.5, 1, 2, 3, 4, 6, 8 and 12 h post-dose, blood samples (about 0.2 mL/time point/rat) were collected to heparinized tubes.

[5] = Liver microsome incubation test, dog; type: in vitro ADME; settings: dog liver microsomes 0.5 mg/mL, 1 μM compound, NADPH, 37° C.
Method: as §1, §2

[6] = Distribution test in SD rat brain tissue, gavage 12 μmol/kg (brain concentration, brain/plasma ratio); type: in vivo; settings: SD rats, gavage 12 μmol/kg of compound 21 or VBZ, 2 h post-dose; compound 21 vs VBZ, metabolite compound 11 vs DHTBZ
Method: After the rats were sacrificed, the brain tissues were extracted, washed with normal saline and dried with filter paper. Cerebral vessels were stripped and the remaining brain tissues were weighed and stored at −20° C.

[7] = Liver microsome incubation test, human; settings: human liver microsomes 0.5 mg/mL, 1 μM compound, NADPH, 37° C.
Method: as §1, §2

[8] = Pharmacokinetic / bioavailability test in SD rats (gavage 5 μmol/kg, intravenous 2 μmol/kg); settings: male, rat, plasma, 2 umol/kg
Method: At each corresponding time point post-dose, blood samples (about 1 ml/time point/rat) were collected to heparinized tubes. Within half an hour after collection, the samples were centrifuged to separate the plasma, which was transferred to 1.5 ml EP tubes and stored at −20° C. for detection.
Method for precipitating proteins was used for the pretreatment of the samples: protein precipitation was carried out in 25 μL of plasma by using 200 μL of acetonitrile containing internal standard. After high-speed centrifugation, the supernatant was diluted with water (1:1 (V/V)) and injected for analysis.

[9] = 11-P4S crystal forms A/D/E suspension competition test; type: physicochemical; settings: suspension in IPA / IPAc, room temperature to 50° C., 17 hours
Method: Then XRPD was carried out on the solid.

VMAT2, sequence (Q01827 whole entry): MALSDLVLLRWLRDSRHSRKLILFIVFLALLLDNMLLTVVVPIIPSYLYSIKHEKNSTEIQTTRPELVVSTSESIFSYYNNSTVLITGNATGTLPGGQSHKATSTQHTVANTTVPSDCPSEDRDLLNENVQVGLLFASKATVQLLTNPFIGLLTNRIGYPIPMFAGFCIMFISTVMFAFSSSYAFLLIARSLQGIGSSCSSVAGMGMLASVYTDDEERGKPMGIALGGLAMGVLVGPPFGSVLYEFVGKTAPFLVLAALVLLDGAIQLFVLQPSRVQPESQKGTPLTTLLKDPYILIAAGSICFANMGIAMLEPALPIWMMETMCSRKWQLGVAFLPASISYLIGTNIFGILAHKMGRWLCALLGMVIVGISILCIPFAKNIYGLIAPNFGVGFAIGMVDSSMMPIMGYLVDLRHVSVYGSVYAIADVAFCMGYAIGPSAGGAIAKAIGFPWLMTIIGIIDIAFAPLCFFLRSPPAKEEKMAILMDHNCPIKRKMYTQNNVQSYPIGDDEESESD

CCCOc1cc2c(cc1OCC)CCN1CC(CC(C)C)C(O)CC21 (centres unmarked) [Comparative Example 41, reference compound]
IC50 (VMAT2): 280 nM

COc1cc2c(cc1OCCCF)CCN1CC(CC(C)C)C(O)CC21 (centres unmarked) [Comparative Example 44, reference compound]
Elimination half-life (t1/2) in liver microsomes [1]: ~ (the data showed that the metabolism was stable and the rate of the original compound left was greater than 80% after an incubation of 60 min.)

COc1cc2c(cc1OCC(F)(F)F)CCN1C[C@@H](CC(C)C)[C@H](O)C[C@H]21 [Compound 11-P4]
movement distance (rat autonomous activity) ([2]; 1.25 μmol/kg): 9313±1213 mm
movement distance (rat autonomous activity) ([2]; 2.5 μmol/kg): 5959±1615 mm
movement distance (rat autonomous activity) ([2]; 5.0 μmol/kg): 1216±429.9 mm
movement distance (rat autonomous activity) ([2]; 10.0 μmol/kg): 1355±524.1 mm
purity change after mixing with excipients [3]: purity dropped obviously

COc1cc2c(cc1OCC(F)(F)F)CCN1CC(CC(C)C)C(O)CC21 (centres unmarked) [Compound 11]
exposure compared to Comparative Example 44 compound and DHTBZ [4]: higher exposure
Elimination half-life (t1/2) in liver microsomes [5]: ~ (the data showed that the metabolism was stable and the rate of the original compound left was greater than 80% after an incubation of 60 min.)
Elimination half-life (t1/2) in liver microsomes [1]: ~ (the data showed that the metabolism was stable and the rate of the original compound left was greater than 80% after an incubation of 60 min.)
concentration in brain tissue compared to VBZ and DHTBZ [6]: significantly higher

COc1cc2c(cc1OCC(F)F)CCN1CC(CC(C)C)C(O)CC21 (centres unmarked) [Compound 12]
Elimination half-life (t1/2) in liver microsomes [5]: ~ (the data showed that the metabolism was stable and the rate of the original compound left was greater than 80% after an incubation of 60 min.)
Elimination half-life (t1/2) in liver microsomes [7]: ~ (the data showed that the metabolism was stable and the rate of the original compound left was greater than 80% after an incubation of 60 min.)
Elimination half-life (t1/2) in liver microsomes [1]: ~ (the data showed that the metabolism was stable and the rate of the original compound left was greater than 80% after an incubation of 60 min.)

COc1cc2c(cc1OCCCC(F)(F)F)CCN1CC(CC(C)C)C(O)CC21 (centres unmarked) [Compound 13]
Elimination half-life (t1/2) in liver microsomes [5]: ~ (the data showed that the metabolism was stable and the rate of the original compound left was greater than 80% after an incubation of 60 min.)
Elimination half-life (t1/2) in liver microsomes [1]: ~ (the data showed that the metabolism was stable and the rate of the original compound left was greater than 80% after an incubation of 60 min.)

CCOc1cc2c(cc1OC)C1CC(O)C(CC(C)C)CN1CC2 (centres unmarked) [Compound 16]
IC50 (VMAT2): 12.9 nM
Elimination half-life (t1/2) in liver microsomes [1]: ~ (the data showed that the metabolism was stable and the rate of the original compound left was greater than 80% after an incubation of 60 min.)

COCCCOc1cc2c(cc1OC)C1CC(O)C(CC(C)C)CN1CC2 (centres unmarked) [Compound 17]
IC50 (VMAT2): 58 nM

CCCOc1cc2c(cc1OC)C1CC(O)C(CC(C)C)CN1CC2 (centres unmarked) [Compound 20]
IC50 (VMAT2): 4.9 nM

COc1cc2c(cc1OCC(F)(F)F)CCN1CC(CC(C)C)C(OC(=O)[C@@H](N)C(C)C)CC21 (some centres unmarked) [Compound 21]
concentration in brain tissue compared to VBZ and DHTBZ [6]: significantly higher

COc1cc2c(cc1OC)[C@H]1C[C@@H](OC(=O)[C@@H](N)C(C)C)[C@H](CC(C)C)CN1CC2 [VBZ, valbenazine]
half-life [8]: 1.67 h

COc1cc2c(cc1OCC(F)(F)F)CCN1C[C@@H](CC(C)C)[C@H](O)C[C@H]21.Cc1ccc(S(=O)(=O)O)cc1 [crystal form A of 11-P4S]
purity ([3]; API alone, 0 d): 99.70%
purity ([3]; API alone, high temperature (60° C.), open, 5 d): 99.69%
purity ([3]; mixed with MCC 1:20, high temperature (60° C.), open, 5 d): 99.26%
purity change after mixing with excipients [3]: no obvious change
purity ([3]; mixed with magnesium stearate 1:20, high temperature (60° C.), open, 5 d): 99.68%
purity ([3]; mixed with talc powder 1:20, high temperature (60° C.), open, 5 d): 99.68%
thermodynamic stability of crystal form [9]: most thermodynamically stable crystal form
